Reference: the NIST ThermoML archive (doi:10.1016/j.jct.2019.07.011)

Assay: xn = mol fraction of the nth substance listed
Settings: Gas, Frequency=0.002 MHz, Spherical resonator

[He] [helium] + C
Settings	speed of sound [m/s]
325 K, 5510.1 kPa, x2 = 0.95	474.34
325 K, 6484.7 kPa, x2 = 0.8999	489.68
325 K, 6498.1 kPa, x2 = 0.95	475.29
325 K, 7001.3 kPa, x2 = 0.95	475.96
325 K, 7483.3 kPa, x2 = 0.8999	491.54
325 K, 7498.5 kPa, x2 = 0.95	476.75
325 K, 8497.4 kPa, x2 = 0.8999	493.86
325 K, 8512.5 kPa, x2 = 0.95	478.75
325 K, 9494.2 kPa, x2 = 0.8999	496.64
325 K, 9503.9 kPa, x2 = 0.95	481.25
325 K, 10493 kPa, x2 = 0.8999	499.87
325 K, 10502 kPa, x2 = 0.95	484.31
325 K, 11469 kPa, x2 = 0.95	487.82
325 K, 11475 kPa, x2 = 0.8999	503.57
325 K, 12500 kPa, x2 = 0.8999	507.85
325 K, 12517 kPa, x2 = 0.95	492.25
325 K, 13295 kPa, x2 = 0.95	495.91
325 K, 13503 kPa, x2 = 0.8999	512.52
325 K, 14011 kPa, x2 = 0.95	499.58
325 K, 14493 kPa, x2 = 0.8999	517.56
325 K, 14716 kPa, x2 = 0.95	503.46
325 K, 15294 kPa, x2 = 0.8999	521.98
325 K, 15309 kPa, x2 = 0.95	506.94
325 K, 15995 kPa, x2 = 0.8999	526.06
325 K, 16003 kPa, x2 = 0.95	511.23
325 K, 16485 kPa, x2 = 0.8999	529.05
325 K, 16552 kPa, x2 = 0.95	514.81
325 K, 16992 kPa, x2 = 0.8999	532.23
325 K, 17002 kPa, x2 = 0.95	517.85
325 K, 17513 kPa, x2 = 0.95	521.43
325 K, 17520 kPa, x2 = 0.8999	535.66
325 K, 17961 kPa, x2 = 0.95	524.66
325 K, 17995 kPa, x2 = 0.8999	538.81
325 K, 18490 kPa, x2 = 0.8999	542.22
325 K, 18521 kPa, x2 = 0.95	528.85
325 K, 18993 kPa, x2 = 0.8999	545.76
325 K, 19024 kPa, x2 = 0.95	532.71
325 K, 19504 kPa, x2 = 0.8999	549.41
325 K, 19536 kPa, x2 = 0.95	536.75
325 K, 19906 kPa, x2 = 0.8999	552.38
350 K, 476.77 kPa, x2 = 0.95	491.9
350 K, 489.4 kPa, x2 = 0.8999	503.05
350 K, 985.81 kPa, x2 = 0.95	491.68
350 K, 990 kPa, x2 = 0.8999	503.09
350 K, 1981.5 kPa, x2 = 0.8999	503.39
350 K, 1988.5 kPa, x2 = 0.95	491.41
350 K, 3476.8 kPa, x2 = 0.8999	504.31
350 K, 3557.7 kPa, x2 = 0.95	491.72
350 K, 4993.3 kPa, x2 = 0.8999	506.12
350 K, 5005.4 kPa, x2 = 0.95	492.68
350 K, 6484 kPa, x2 = 0.8999	508.51
350 K, 6520.9 kPa, x2 = 0.95	494.52
350 K, 7487.6 kPa, x2 = 0.8999	510.6
350 K, 8493.7 kPa, x2 = 0.8999	513.01
350 K, 8537.3 kPa, x2 = 0.95	498.36
350 K, 9502.1 kPa, x2 = 0.8999	515.83
350 K, 10503 kPa, x2 = 0.8999	518.95
350 K, 10534 kPa, x2 = 0.95	503.83
350 K, 11996 kPa, x2 = 0.8999	524.33
350 K, 12032 kPa, x2 = 0.95	509.02
350 K, 13418 kPa, x2 = 0.95	514.87
350 K, 13498 kPa, x2 = 0.8999	530.47
350 K, 14498 kPa, x2 = 0.8999	535.04
350 K, 14519 kPa, x2 = 0.95	519.93
350 K, 15505 kPa, x2 = 0.8999	539.96
350 K, 15599 kPa, x2 = 0.95	525.36
350 K, 16500 kPa, x2 = 0.8999	545.16
350 K, 16626 kPa, x2 = 0.95	530.93
350 K, 17495 kPa, x2 = 0.8999	550.65
350 K, 17512 kPa, x2 = 0.95	536.05
350 K, 18437 kPa, x2 = 0.95	541.71
350 K, 18509 kPa, x2 = 0.8999	556.57
350 K, 19237 kPa, x2 = 0.95	546.81
350 K, 19509 kPa, x2 = 0.8999	562.67
350 K, 20020 kPa, x2 = 0.95	552
350 K, 20352 kPa, x2 = 0.8999	568.05
350 K, 20966 kPa, x2 = 0.95	558.46
375 K, 480.89 kPa, x2 = 0.8999	517.61
375 K, 508.08 kPa, x2 = 0.95	506.89
375 K, 970.3 kPa, x2 = 0.95	506.94
375 K, 974.52 kPa, x2 = 0.8999	518
375 K, 1977.8 kPa, x2 = 0.8999	518.72
375 K, 1994.9 kPa, x2 = 0.95	507.23
375 K, 2982.4 kPa, x2 = 0.8999	519.78
375 K, 3486.1 kPa, x2 = 0.95	508.11
375 K, 4474.8 kPa, x2 = 0.8999	521.69
375 K, 4994.3 kPa, x2 = 0.95	509.68
375 K, 5993.9 kPa, x2 = 0.8999	524.5
375 K, 6507.4 kPa, x2 = 0.95	511.94
375 K, 7482.9 kPa, x2 = 0.8999	527.66
375 K, 8485.9 kPa, x2 = 0.8999	530.3
375 K, 8534.5 kPa, x2 = 0.95	516.24
375 K, 9494.9 kPa, x2 = 0.8999	533.16
375 K, 10491 kPa, x2 = 0.8999	536.22
375 K, 10526 kPa, x2 = 0.95	521.64
375 K, 11482 kPa, x2 = 0.8999	539.61
375 K, 12041 kPa, x2 = 0.95	526.64
375 K, 12500 kPa, x2 = 0.8999	543.46
375 K, 13432 kPa, x2 = 0.95	531.87
375 K, 13465 kPa, x2 = 0.8999	547.3
375 K, 14475 kPa, x2 = 0.8999	551.75
375 K, 14510 kPa, x2 = 0.95	536.35
375 K, 15493 kPa, x2 = 0.8999	556.41
375 K, 15609 kPa, x2 = 0.95	541.3
375 K, 16440 kPa, x2 = 0.8999	560.93
375 K, 16573 kPa, x2 = 0.95	545.93
375 K, 17490 kPa, x2 = 0.8999	566.34
375 K, 17518 kPa, x2 = 0.95	550.72
375 K, 18172 kPa, x2 = 0.8999	569.92
375 K, 18322 kPa, x2 = 0.95	555.02
375 K, 18705 kPa, x2 = 0.8999	572.84
375 K, 19198 kPa, x2 = 0.95	559.9
